#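 Each compound was tested at five concentrations against cells in 96-well plates for 48 hours. At the GI50, growth is halved. Definition used: TGI = concentration required for complete inhibition of growth.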
# Legend:
# Test in all cases: DTP human tumour cell line panel, 48 h
# [1] = test system: MDA-MB-468 breast
# [2] = test system: SF-268 CNS
# [3] = test system: M14 melanoma
# [4] = test system: ACHN renal
# [5] = test system: SF-295 CNS
# [6] = test system: HS 578T breast
# [7] = test system: A549 NSCLC
# [8] = test system: RXF 393 renal
# [9] = test system: EKVX NSCLC
# [10] = test system: OVCAR-3 ovarian
# [11] = test system: UACC-62 melanoma
# [12] = test system: PC-3 prostate
# [13] = test system: MCF7 breast
# [14] = test system: TK-10 renal
# [15] = test system: SK-MEL-2 melanoma
# [16] = test system: 786-0 renal
# [17] = test system: MDA-MB-435
# [18] = test system: NCI/ADR-RES ovarian
# [19] = test system: SK-MEL-5 melanoma
# [20] = test system: BT-549 breast
# [21] = test system: SN12C renal
# [22] = test system: CAKI-1 renal
# [23] = test system: SR leukemia
# [24] = test system: U251 CNS
# [25] = test system: HOP-62 NSCLC
# [26] = test system: HCT-116 colon
# [27] = test system: DU-145 prostate
# [28] = test system: CCRF-CEM leukemia
# [29] = test system: NCI-H460 lung
# [30] = test system: NCI-H23 lung
# [31] = test system: SW-620 colon
# [32] = test system: HCC-2998 colon
# [33] = test system: UACC-257 melanoma
# [34] = test system: IGROV1 ovarian
# [35] = test system: HL-60(TB) leukemia
# [36] = test system: SK-OV-3 ovarian
# [37] = test system: SNB-19 CNS
# [38] = test system: MALME-3M melanoma
# [39] = test system: COLO 205 colon
# [40] = test system: MDA-MB-231 breast
# [41] = test system: RPMI-8226 leukemia
# [42] = test system: OVCAR-5 ovarian
# [43] = test system: K-562 leukemia
# [44] = test system: OVCAR-4 ovarian
# [45] = test system: NCI-H226 lung
# [46] = test system: HCT-15 colon
# [47] = test system: NCI-H522 lung
# [48] = test system: LOX IMVI melanoma
# [49] = test system: OVCAR-8 ovarian
# [50] = test system: HOP-92 NSCLC
# [51] = test system: KM12 colon
# [52] = test system: MOLT-4 leukemia
# [53] = test system: SK-MEL-28 melanoma
# [54] = test system: SNB-75 CNS
# [55] = test system: SF-539 CNS
# [56] = test system: T-47D breast
# [57] = test system: HT29 colon
# [58] = test system: UO-31 renal
# [59] = test system: A498 renal
smiles,measurement,setting,value
C=C1CCC2C3(C)COC(c4ccc(F)cc4)OC3CCC2(C)C1C/C=C1/C(=O)OCC1O (stereo not drawn),GI50,[1],1.67 µM
same,TGI,[1],3.21 µM
same,GI50,[2],3.53 µM
same,TGI,[2],14.4 µM
same,GI50,[3],2.2 µM
same,TGI,[3],5.92 µM
same,GI50,[4],1.69 µM
same,TGI,[4],3.06 µM
same,GI50,[5],1.87 µM
same,TGI,[5],4.64 µM
same,GI50,[6],2.7 µM
same,TGI,[6],9.69 µM
same,GI50,[7],3.07 µM
same,TGI,[7],13.1 µM
same,GI50,[8],2.41 µM
same,TGI,[8],6.54 µM
same,GI50,[9],4.57 µM
same,TGI,[9],17.2 µM
same,GI50,[10],1.83 µM
same,TGI,[10],3.6 µM
same,GI50,[11],1.94 µM
same,TGI,[11],4.8 µM
same,GI50,[12],2.19 µM
same,TGI,[12],5.92 µM
same,GI50,[13],1.1 µM
same,TGI,[13],2.88 µM
same,GI50,[14],3.85 µM
same,TGI,[14],14.9 µM
same,GI50,[15],1.89 µM
same,TGI,[15],3.89 µM
same,GI50,[16],1.74 µM
same,TGI,[16],3.15 µM
same,GI50,[17],1.84 µM
same,TGI,[17],4.48 µM
same,GI50,[18],1.67 µM
same,TGI,[18],3.55 µM
same,GI50,[19],2.73 µM
same,TGI,[19],8.58 µM
same,GI50,[20],1.65 µM
same,TGI,[20],3.19 µM
same,GI50,[21],1.48 µM
same,TGI,[21],3.18 µM
same,GI50,[22],3.06 µM
same,TGI,[22],11.5 µM
same,GI50,[23],2.44 µM
same,TGI,[23],6.51 µM
same,GI50,[24],1.66 µM
same,TGI,[24],3.09 µM
same,GI50,[25],10.7 µM
same,TGI,[25],22.9 µM
same,GI50,[26],1.42 µM
same,TGI,[26],2.74 µM
same,GI50,[27],3.86 µM
same,TGI,[27],13.8 µM
same,GI50,[28],1.24 µM
same,TGI,[28],5.2 µM
same,GI50,[29],2.02 µM
same,TGI,[29],5.48 µM
same,GI50,[30],3.08 µM
same,TGI,[30],11.5 µM
same,GI50,[31],1.25 µM
same,TGI,[31],2.71 µM
same,GI50,[32],2.67 µM
same,TGI,[32],8.69 µM
same,GI50,[33],2.04 µM
same,TGI,[33],5.28 µM
same,GI50,[34],2.78 µM
same,TGI,[34],10.1 µM
same,GI50,[35],1.74 µM
same,TGI,[35],4.93 µM
same,GI50,[36],14.4 µM
same,TGI,[36],27.8 µM
same,GI50,[37],4.84 µM
same,TGI,[37],16.9 µM
same,GI50,[38],2.06 µM
same,TGI,[38],5.16 µM
same,GI50,[39],1.86 µM
same,TGI,[39],3.47 µM
same,GI50,[40],1.92 µM
same,TGI,[40],4.03 µM
same,GI50,[41],1.83 µM
same,TGI,[41],5.05 µM
same,GI50,[42],2.01 µM
same,TGI,[42],4.9 µM
same,GI50,[43],2.09 µM
same,GI50,[44],2.11 µM
same,TGI,[44],5.9 µM
same,GI50,[45],1.81 µM
same,TGI,[45],3.58 µM
same,GI50,[46],1.41 µM
same,TGI,[46],3.24 µM
same,GI50,[47],1.45 µM
same,TGI,[47],2.91 µM
same,GI50,[48],1.5 µM
same,TGI,[48],2.83 µM
same,GI50,[49],1.54 µM
same,TGI,[49],3.4 µM
same,GI50,[50],2.17 µM
same,TGI,[50],6.46 µM
same,GI50,[51],2.81 µM
same,TGI,[51],7.72 µM
same,GI50,[52],2.79 µM
same,TGI,[52],8.13 µM
same,GI50,[53],1.94 µM
same,TGI,[53],4.02 µM
same,GI50,[54],1.58 µM
same,TGI,[54],7.57 µM
same,GI50,[55],1.76 µM
same,TGI,[55],3.16 µM
same,GI50,[56],2.14 µM
same,TGI,[56],9.87 µM
same,GI50,[57],1.78 µM
same,TGI,[57],3.85 µM
same,GI50,[58],1.55 µM
same,TGI,[58],3.67 µM
same,GI50,[59],13.7 µM
same,TGI,[59],27 µM
Cn1cc(-c2cc(N)n3nc(-c4cn(C)c5ccccc45)cc3n2)c2cc(Cl)ccc21,GI50,[1],2.2 µM
same,TGI,[1],5.36 µM
same,GI50,[2],8.07 µM
same,TGI,[2],32.7 µM
same,GI50,[3],1.95 µM
same,TGI,[3],4.71 µM
same,GI50,[4],2.05 µM
same,TGI,[4],4.46 µM
same,GI50,[5],1.92 µM
same,TGI,[5],4.26 µM
same,GI50,[6],3.3 µM
same,TGI,[6],19.4 µM
same,GI50,[7],2.68 µM
same,TGI,[7],10.7 µM
same,GI50,[8],1.98 µM
same,TGI,[8],4.01 µM
same,GI50,[9],12.6 µM
same,TGI,[9],37.4 µM
same,GI50,[10],11.3 µM
same,TGI,[10],28.1 µM
same,GI50,[11],1.64 µM
same,TGI,[11],3.16 µM
same,GI50,[12],1.93 µM
same,TGI,[12],4.91 µM
same,GI50,[13],1.77 µM
same,TGI,[13],4.13 µM
same,GI50,[14],11.7 µM
same,TGI,[14],26.6 µM
same,GI50,[15],1.84 µM
same,TGI,[15],4.1 µM
same,GI50,[16],1.74 µM
same,TGI,[16],3.45 µM
same,GI50,[17],2.06 µM
same,TGI,[17],4.26 µM
same,GI50,[18],3.03 µM
same,TGI,[18],9.38 µM
same,GI50,[19],3.5 µM
same,TGI,[19],13 µM
same,GI50,[20],14.6 µM
same,TGI,[20],33.4 µM
same,GI50,[21],1.77 µM
same,TGI,[21],3.33 µM
same,GI50,[22],2 µM
same,TGI,[22],5.54 µM
same,GI50,[23],2.03 µM
same,TGI,[23],6.77 µM
same,GI50,[24],1.86 µM
same,TGI,[24],3.73 µM
same,GI50,[25],5.29 µM
same,TGI,[25],26.4 µM
same,GI50,[26],1.87 µM
same,TGI,[26],3.87 µM
same,GI50,[27],6.37 µM
same,TGI,[27],> 100 µM
same,GI50,[28],3.22 µM
same,TGI,[28],15.3 µM
same,GI50,[29],2.2 µM
same,TGI,[29],4.96 µM
same,GI50,[30],3.75 µM
same,TGI,[30],20.5 µM
same,GI50,[31],2.17 µM
same,TGI,[31],4.8 µM
same,GI50,[32],1.78 µM
same,TGI,[32],3.34 µM
same,GI50,[33],2.44 µM
same,TGI,[33],7.17 µM
same,GI50,[34],2.45 µM
same,TGI,[34],8.26 µM
same,GI50,[35],2.35 µM
same,TGI,[35],5.81 µM
same,GI50,[36],18 µM
same,TGI,[36],48.2 µM
same,GI50,[37],3.45 µM
same,TGI,[37],23.8 µM
same,GI50,[38],1.71 µM
same,TGI,[38],3.22 µM
same,GI50,[39],1.97 µM
same,TGI,[39],3.95 µM
same,GI50,[40],1.82 µM
same,TGI,[40],3.3 µM
same,GI50,[41],3.27 µM
same,TGI,[41],14.9 µM
same,GI50,[42],5.16 µM
same,TGI,[42],25.5 µM
same,GI50,[43],2.97 µM
same,TGI,[43],10.6 µM
same,GI50,[44],3.28 µM
same,TGI,[44],11.3 µM
same,GI50,[45],> 100 µM
same,TGI,[45],> 100 µM
same,GI50,[46],1.84 µM
same,TGI,[46],3.95 µM
same,GI50,[47],1.6 µM
same,TGI,[47],3.48 µM
same,GI50,[49],2.09 µM
same,TGI,[49],4.59 µM
same,GI50,[50],2.23 µM
same,TGI,[50],6.51 µM
same,GI50,[51],2.15 µM
same,TGI,[51],4.83 µM
same,GI50,[52],2.58 µM
same,TGI,[52],9.61 µM
same,GI50,[53],1.69 µM
same,TGI,[53],3.08 µM
same,GI50,[54],10.6 µM
same,TGI,[54],26.6 µM
same,GI50,[55],1.85 µM
same,TGI,[55],3.83 µM
same,GI50,[56],10.1 µM
same,TGI,[56],33.3 µM
same,GI50,[57],1.79 µM
same,TGI,[57],3.51 µM
same,GI50,[58],1.63 µM
same,TGI,[58],3.07 µM
same,GI50,[59],14.3 µM
same,TGI,[59],32.3 µM
